Common to all, as to assay type: cell-based
In one test the target is T1, human TLR9 (Homo sapiens, UniProt Q9NR96).
T1 construct: host or cells: HEK-Blue cells (HEK293-derived reporter line)
T1 sequence (Q9NR96 26-1032): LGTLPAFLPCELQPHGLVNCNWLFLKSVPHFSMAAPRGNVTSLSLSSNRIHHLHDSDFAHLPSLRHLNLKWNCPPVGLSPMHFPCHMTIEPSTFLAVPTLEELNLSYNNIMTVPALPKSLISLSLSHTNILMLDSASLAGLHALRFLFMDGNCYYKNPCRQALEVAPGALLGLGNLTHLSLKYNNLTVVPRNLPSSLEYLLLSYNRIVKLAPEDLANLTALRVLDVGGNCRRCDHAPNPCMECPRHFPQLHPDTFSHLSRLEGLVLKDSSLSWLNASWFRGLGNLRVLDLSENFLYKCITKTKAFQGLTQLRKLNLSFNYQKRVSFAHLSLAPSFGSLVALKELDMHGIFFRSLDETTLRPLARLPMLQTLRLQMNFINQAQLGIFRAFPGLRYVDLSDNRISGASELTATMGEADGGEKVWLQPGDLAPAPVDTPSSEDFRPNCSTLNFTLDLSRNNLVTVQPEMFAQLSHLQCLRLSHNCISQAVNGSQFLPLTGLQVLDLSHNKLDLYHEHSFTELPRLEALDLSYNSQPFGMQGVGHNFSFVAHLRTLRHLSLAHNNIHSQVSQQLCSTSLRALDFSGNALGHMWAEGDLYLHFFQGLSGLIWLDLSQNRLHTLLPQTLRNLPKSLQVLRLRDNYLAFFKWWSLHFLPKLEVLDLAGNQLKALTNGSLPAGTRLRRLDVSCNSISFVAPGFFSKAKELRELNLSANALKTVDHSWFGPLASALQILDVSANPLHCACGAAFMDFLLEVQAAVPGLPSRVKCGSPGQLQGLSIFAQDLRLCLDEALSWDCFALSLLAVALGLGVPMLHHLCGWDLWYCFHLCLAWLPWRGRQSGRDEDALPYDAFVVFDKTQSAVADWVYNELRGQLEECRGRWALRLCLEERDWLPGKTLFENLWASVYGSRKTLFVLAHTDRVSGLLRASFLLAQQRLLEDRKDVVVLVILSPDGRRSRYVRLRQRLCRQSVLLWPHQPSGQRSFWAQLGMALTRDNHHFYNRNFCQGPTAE
Put plainly: TLR9 inhibition reporter assay (HEK-Blue cells, secreted embryonic alkaline phosphatase reporter). The conditions noted are these: HEK-Blue cells overexpressing human TLR9, stimulated with ODN2006 5 nM. The essentials: (§1)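 Read-out is SEAP colour from HEK-Blue Detection medium after 22 h at 37 °C, converted to percent inhibition between agonist-plus-DMSO and reference-inhibitor wells. Receptor-overexpressing HEK-Blue cells received compound over 0.05 nM–50 μM for 30 min before agonist: gardiquimod 7.5 μM for TLR7, R848 15.9 μM for TLR8, ODN2006 5 nM for TLR9.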

The next test deals with T2, human TLR7 (Homo sapiens, UniProt Q9NYK1).
T2 construct: host or cells: HEK-Blue cells (HEK293-derived reporter line)
T2 sequence (Q9NYK1 27-1049): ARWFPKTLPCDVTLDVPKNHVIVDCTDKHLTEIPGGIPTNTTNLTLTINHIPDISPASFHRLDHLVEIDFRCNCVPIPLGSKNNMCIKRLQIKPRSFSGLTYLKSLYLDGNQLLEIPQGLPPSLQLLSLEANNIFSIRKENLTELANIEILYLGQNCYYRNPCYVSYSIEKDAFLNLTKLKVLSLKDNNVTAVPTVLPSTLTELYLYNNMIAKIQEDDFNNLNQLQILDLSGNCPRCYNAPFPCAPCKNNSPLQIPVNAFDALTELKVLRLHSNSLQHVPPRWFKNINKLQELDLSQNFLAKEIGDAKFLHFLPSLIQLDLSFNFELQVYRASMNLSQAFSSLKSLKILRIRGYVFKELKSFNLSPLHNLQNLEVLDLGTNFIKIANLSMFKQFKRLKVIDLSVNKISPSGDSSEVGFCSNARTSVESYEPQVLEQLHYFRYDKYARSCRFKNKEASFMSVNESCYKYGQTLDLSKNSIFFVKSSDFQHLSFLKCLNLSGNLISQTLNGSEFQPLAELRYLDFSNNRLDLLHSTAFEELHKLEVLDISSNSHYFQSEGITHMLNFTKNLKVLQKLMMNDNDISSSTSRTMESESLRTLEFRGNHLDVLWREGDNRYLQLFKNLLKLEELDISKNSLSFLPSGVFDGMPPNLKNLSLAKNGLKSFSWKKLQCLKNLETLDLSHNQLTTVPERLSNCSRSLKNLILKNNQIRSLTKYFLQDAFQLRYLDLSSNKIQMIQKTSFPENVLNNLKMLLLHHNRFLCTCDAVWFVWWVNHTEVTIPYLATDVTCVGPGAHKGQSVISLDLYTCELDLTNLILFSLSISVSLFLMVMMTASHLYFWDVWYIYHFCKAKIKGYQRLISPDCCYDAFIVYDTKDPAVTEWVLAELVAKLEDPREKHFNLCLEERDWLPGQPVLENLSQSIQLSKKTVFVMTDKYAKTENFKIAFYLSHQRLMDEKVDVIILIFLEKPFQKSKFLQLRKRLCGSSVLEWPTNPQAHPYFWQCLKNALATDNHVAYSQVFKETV
The test can be described thus: TLR7 inhibition reporter assay (HEK-Blue cells, secreted embryonic alkaline phosphatase reporter). The settings on record: HEK-Blue cells overexpressing human TLR7, stimulated with gardiquimod 7.5 μM; read-out: TLR 7 IC50. In a few lines: as §1
In general terms: A reporter such as luciferase makes a cellular process visible.

For another test, the target named is T3, human TLR8 (Homo sapiens, UniProt Q9NR97).
T3 construct: host or cells: HEK-Blue cells (HEK293-derived reporter line)
T3 sequence (Q9NR97 27-1041): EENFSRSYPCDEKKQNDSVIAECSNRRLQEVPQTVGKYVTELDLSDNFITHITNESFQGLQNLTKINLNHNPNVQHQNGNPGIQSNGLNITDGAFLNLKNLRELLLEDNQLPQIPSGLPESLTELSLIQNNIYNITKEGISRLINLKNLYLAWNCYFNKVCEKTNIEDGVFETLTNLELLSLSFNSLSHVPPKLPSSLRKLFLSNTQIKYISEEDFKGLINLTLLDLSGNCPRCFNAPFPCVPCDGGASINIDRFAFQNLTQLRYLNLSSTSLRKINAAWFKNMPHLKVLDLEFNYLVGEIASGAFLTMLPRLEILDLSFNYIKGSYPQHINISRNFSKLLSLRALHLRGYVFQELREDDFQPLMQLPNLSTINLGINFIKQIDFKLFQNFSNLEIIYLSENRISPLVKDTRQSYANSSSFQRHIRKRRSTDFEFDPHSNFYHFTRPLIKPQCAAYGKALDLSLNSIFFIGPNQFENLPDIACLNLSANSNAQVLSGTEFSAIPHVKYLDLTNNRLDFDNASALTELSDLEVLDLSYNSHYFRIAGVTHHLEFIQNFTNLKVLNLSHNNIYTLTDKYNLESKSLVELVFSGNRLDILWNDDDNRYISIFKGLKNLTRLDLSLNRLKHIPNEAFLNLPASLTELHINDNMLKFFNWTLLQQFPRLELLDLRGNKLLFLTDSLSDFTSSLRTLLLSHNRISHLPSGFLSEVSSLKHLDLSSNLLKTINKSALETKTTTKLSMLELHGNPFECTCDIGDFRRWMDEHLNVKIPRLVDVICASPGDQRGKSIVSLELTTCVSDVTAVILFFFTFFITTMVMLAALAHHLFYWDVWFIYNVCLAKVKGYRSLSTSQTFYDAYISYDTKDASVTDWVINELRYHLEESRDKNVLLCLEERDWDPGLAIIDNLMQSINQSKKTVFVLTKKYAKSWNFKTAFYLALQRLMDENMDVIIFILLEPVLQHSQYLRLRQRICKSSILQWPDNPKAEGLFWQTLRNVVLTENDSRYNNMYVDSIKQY
The test can be described thus: TLR8 inhibition reporter assay (HEK-Blue cells, secreted embryonic alkaline phosphatase reporter). The settings on record: HEK-Blue cells overexpressing human TLR8, stimulated with R848 15.9 μM; read-out: TLR 8 IC50. In a few lines: as §1

Where [1] appears, read: 22 hour incubation, reporter readout.

Drawing on patent US12492188B2, “1H-benzo[D]imidazole derivatives as TLR9 inhibitors for the treatment of fibrosis” (BRISTOL-MYERS SQUIBB COMPANY, priority 2020, dated 2025), this text covers IC50 for eleven compounds.

Like-named read-outs stand apart in the source and are kept apart here. Bounds are passed on as bounds.

As for `COc1ccc(-c2nc3c(C)cc(C4CCN(C5CCN(C(C)C)CC5)CC4)cc3[nH]2)cc1OC` [Example 11, 2-(3,4-dimethoxyphenyl)-6-(1′-isopropyl-[1,4′-bipiperidin]-4-yl)-4-methyl-1H-benzo[d]imidazole], the IC50 (in general, the midpoint of a concentration-inhibition curve) is 33 nM on human TLR9 (setting [1]), 5000 nM on human TLR7 and greater than 50000 nM at human TLR8.

For `COc1ccc(-c2nc3c(C)cc(C4CCN(C5CC6(C5)CN(C(C)C)C6)CC4)cc3[nH]2)cc1OC` [Example 12, 2-(3,4-dimethoxyphenyl)-6-(1-(2-isopropyl-2-azaspiro[3.3]heptan-6-yl)piperidin-4-yl)-4-methyl-1H-benzo[d]imidazole], the IC50 is 60 nM against human TLR9 (setting [1]), 22000 nM at human TLR7 and greater than 50000 nM at human TLR8.

Regarding `COc1ccc(-c2nc3c(C)cc(C4CCN(C5CCNCC5)CC4)cc3[nH]2)cc1OC` [Example 13, 6-([1,4′-bipiperidin]-4-yl)-2-(3,4-dimethoxyphenyl)-4-methyl-1H-benzo[d]imidazole tris(2,2,2-trifluoroacetate)], the half-inhibitory concentration (IC50) is 620 nM on human TLR9 (setting [1]), 617 nM at human TLR9 (read-out: TLR 9 IC50), greater than 50000 nM on human TLR7 and greater than 50000 nM on human TLR8.

Turning to `COc1ccc(-c2nc3c(C)cc(C4CCN(C5CCN(C(=O)C(C)C)CC5)CC4)cc3[nH]2)cc1OC` [Example 14, 1-(4-(2-(3,4-dimethoxyphenyl)-4-methyl-1H-benzo[d]imidazol-6-yl)-[1,4′-bipiperidin]-1′-yl)-2-methylpropan-1-one], the 50% inhibitory concentration (IC50) on human TLR9 (setting [1]) is 510 nM; at human TLR9 (read-out: TLR 9 IC50) it was 509 nM; on human TLR7 it was greater than 50000 nM; on human TLR8, greater than 50000 nM.

On to `COc1ccc(-c2nc3c(C)cc(C4CCN(C5CCN(CC(C)C)CC5)CC4)cc3n2C)cc1OC` [Example 15, 2-(3,4-dimethoxyphenyl)-6-(1′-isobutyl-[1,4′-bipiperidin]-4-yl)-1,4-dimethyl-1H-benzo[d]imidazole tris(2,2,2-trifluoroacetate)], for which the IC50 against human TLR9 (setting [1]) was 19 nM; at human TLR7, 7100 nM; at human TLR8 it was greater than 50000 nM.

Regarding `COc1ccc(-c2nc3c(C)cc(C4CCN(C5CC6(C5)CN(C(C)C)C6)CC4)cc3n2C)cc1OC` [Example 16, 2-(3,4-dimethoxyphenyl)-6-(1-(2-isopropyl-2-azaspiro[3.3]heptan-6-yl)piperidin-4-yl)-1,4-dimethyl-1H-benzo[d]imidazole tris(2,2,2-trifluoroacetate)], the IC50 at human TLR9 (setting [1]) was 100 nM; on human TLR9 (read-out: TLR 9 IC50), 10.4 nM; on human TLR7, 10000 nM; on human TLR8, greater than 50000 nM.

On to `Cc1cc(C2CCN(C3CCN(C(C)C)CC3)CC2)cc2c1nc(-c1ccc(S(C)(=O)=O)cc1)n2C` [Example 22, 6-(1′-isopropyl-[1,4′-bipiperidin]-4-yl)-1,4-dimethyl-2-(4-(methylsulfonyl)phenyl)-1H-benzo[d]imidazole], for which the values for the IC50 against human TLR9 (setting [1]), on human TLR7 and at human TLR8 were 7.6 nM, 24000 nM and greater than 50000 nM, respectively.

Turning to `COc1ccc(-c2nc3c(C)cc(C4CCN(C5CCN(C(C)C)CC5)CC4)cc3n2C)cc1F` [Example 23, 2-(3-fluoro-4-methoxyphenyl)-6-(1′-isopropyl-[1,4′-bipiperidin]-4-yl)-1,4-dimethyl-1H-benzo[d]imidazole], the IC50 on human TLR9 (setting [1]) is 160 nM; on human TLR9 (read-out: TLR 9 IC50), 159 nM; on human TLR7, 8800 nM; at human TLR8 it was greater than 50000 nM.

On to `COc1ccc(-c2nc3c(C)cc(C4CCN(C5CCN(C(C)C)CC5)CC4)cc3[nH]2)cc1F` [Example 24, 2-(3-fluoro-4-methoxyphenyl)-6-(1′-isopropyl-[1,4′-bipiperidin]-4-yl)-4-methyl-1H-benzo[d]imidazole], for which the values for the IC50 against human TLR9 (setting [1]), at human TLR7 and at human TLR8 were 48 nM, 3000 nM and greater than 50000 nM, respectively.

Take `Cc1cc(C2CCN(C3CCN(CC(C)C)CC3)CC2)cc2[nH]c(-c3ccc4nccn4c3)nc12` [Example 25, 2-(imidazo[1,2-a]pyridin-6-yl)-6-(1′-isobutyl-[1,4′-bipiperidin]-4-yl)-4-methyl-1H-benzo[d]imidazole]: the IC50 was 160 nM against human TLR9 (setting [1]), 164 nM at human TLR9 (read-out: TLR 9 IC50), 3000 nM on human TLR7 and greater than 50000 nM at human TLR8.

For the compound `COc1ccc(-c2nc3ccc(C4CCN(C5CCN(CC(C)C)CC5)CC4)cc3n2C)cc1OC` [Example 26, 2-(3,4-dimethoxyphenyl)-6-(1′-isobutyl-[1,4′-bipiperidin]-4-yl)-1-methyl-1H-benzo[d]imidazole], the 50% inhibitory concentration (IC50) on human TLR9 (setting [1]) is 130 nM; on human TLR9 (read-out: TLR 9 IC50) it was 132 nM; on human TLR7, 32000 nM; at human TLR8, greater than 50000 nM.
